From patent US20230322723A1, “COMPOUNDS FOR SUPPRESSING EGFR MUTANT CANCER AND PHARMACEUTICAL USE THEREOF” (J2H BIOTECH INC., priority 2020, published 2023) come the findings set out here.

One data set concerns EGFR^del19+T790M+C797S. The experiment in a line: EGFR protein degradation test (Western blot) in Ba/F3 cells expressing mutant EGFR del19+T790M+C797S (DTC). It counts as cell-based. To be noted: compounds at 0.1 μM and 1 μM, 24 hours, Western blot with EGFR antibody. A digest of the protocol: (§1)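 EGFR protein level was measured by Western blot on 30 μg lysate, bands quantified by imager. Lysates came from Ba/F3 lines carrying normal, LTC or DTC mutant EGFR, exposed 24 h to compound at 0.1 and 1 μM.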
Background: In western blotting, separated proteins are transferred to a membrane and probed.

A further data set deals with T1, EGFR^L858R+T790M+C797S (Homo sapiens, UniProt P00533, C797S/L858R/T790M).
T1 construct: expressed in transfected cells; host or cells: Ba/F3
T1 sequence (P00533 25-1210 T790M/C797S/L858R): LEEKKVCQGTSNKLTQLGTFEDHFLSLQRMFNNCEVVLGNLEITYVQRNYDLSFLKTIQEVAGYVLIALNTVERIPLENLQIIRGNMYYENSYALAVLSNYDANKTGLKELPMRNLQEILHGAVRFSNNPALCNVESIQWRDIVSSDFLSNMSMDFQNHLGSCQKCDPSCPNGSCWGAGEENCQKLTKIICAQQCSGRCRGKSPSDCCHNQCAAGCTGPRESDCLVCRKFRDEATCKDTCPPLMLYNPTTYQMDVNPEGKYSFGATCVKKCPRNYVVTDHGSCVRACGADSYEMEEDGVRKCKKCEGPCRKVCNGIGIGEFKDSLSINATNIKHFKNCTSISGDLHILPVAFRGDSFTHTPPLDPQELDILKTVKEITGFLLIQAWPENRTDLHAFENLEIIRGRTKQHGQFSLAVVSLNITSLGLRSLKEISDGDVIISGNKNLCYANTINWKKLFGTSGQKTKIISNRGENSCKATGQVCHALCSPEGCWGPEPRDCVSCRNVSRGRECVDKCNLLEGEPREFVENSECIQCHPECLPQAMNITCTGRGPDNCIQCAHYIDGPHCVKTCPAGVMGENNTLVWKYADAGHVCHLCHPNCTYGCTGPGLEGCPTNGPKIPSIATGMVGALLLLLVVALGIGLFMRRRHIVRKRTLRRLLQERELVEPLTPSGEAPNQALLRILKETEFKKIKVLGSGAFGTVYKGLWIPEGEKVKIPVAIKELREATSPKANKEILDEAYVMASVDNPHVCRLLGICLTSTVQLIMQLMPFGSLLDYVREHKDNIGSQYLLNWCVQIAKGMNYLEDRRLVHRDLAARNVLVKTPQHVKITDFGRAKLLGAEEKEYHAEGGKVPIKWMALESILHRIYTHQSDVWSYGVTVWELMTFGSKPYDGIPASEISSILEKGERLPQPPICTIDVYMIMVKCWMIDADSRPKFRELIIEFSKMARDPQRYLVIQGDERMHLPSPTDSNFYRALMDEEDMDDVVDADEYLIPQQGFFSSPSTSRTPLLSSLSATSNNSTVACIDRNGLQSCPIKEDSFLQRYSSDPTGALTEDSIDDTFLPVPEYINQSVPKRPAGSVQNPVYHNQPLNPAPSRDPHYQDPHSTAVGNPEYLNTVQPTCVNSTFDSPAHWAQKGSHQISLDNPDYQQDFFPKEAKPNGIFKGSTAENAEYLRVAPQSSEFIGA
Kind of data set: EGFR protein degradation test (Western blot) in Ba/F3 cells expressing mutant EGFR L858R+T790M+C797S (LTC). It counts as cell-based. To be noted: compounds at 0.1 μM and 1 μM, 24 hours, Western blot with EGFR antibody. The essentials: as §1

Data set [1] is described as follows: Pharmacokinetic evaluation after single oral administration to ICR mice. It counts as in vivo. The conditions noted are these: mouse, ICR mice, single oral dose 5 mg/kg, plasma; for AUC(0-t): read-out: AUC0-24. As to the method:
Pharmacokinetic tests for the compounds of the present invention were conducted as below. After a single oral administration of the compound of the present invention to ICR mice, the concentration of the compound over time was followed up and analyzed.
The compound of the present invention was suspended in 10% DMSO/90% (30% HPbCD aqueous solution) and orally administered to mice at a dose of 5 mg/kg. Blood was collected at a fixed time and plasma was separated. Drug analysis was performed using HPLC (XBridge column C18, Waters, mobile phase 0.1% formic acid:acetonitrile (30:70, %/%)) and MS/MS (ESI positive, MRM). Mouse blood plasma and each commercially available standard solution were mixed at a ratio of 9:1 to prepare and calibrate at concentrations of […] 5,000 ng/mL. In addition, the preparation of QC samples was prepared by mixing the mouse blood plasma and the standard solution for QC at a ratio of 9:1, and prepared to be concentrations of 100, 750 and 2,500 ng/mL. 100 μL of the plasma sample was transferred to a centrifugation tube, and 10 μL of the internal standard solution and 300 μL of methanol were added, followed by mixing for about 30 seconds for pretreatment. The tube was centrifuged at 3,000×g (4° C.) for about 5 minutes, and the supernatant was taken and transferred to an LC vial and injected into the instrument. Then, the concentration of the compound in mouse plasma was quantified by applying a previously validated assay. For pharmacokinetic parameters, the program WinNonlin 5.2 (Pharsight, USA) was used. AUC0-t, AUC0-∞, Cmax, Tmax, and t1/2 were calculated by Noncompartment modeling (best fit). The pharmacokinetic parameter results were expressed as the mean (Mean) and standard deviation (SD), and were statistically processed using the SPSS program (Statistical Package for the Social Sciences, 10.0K, USA).

Take `COc1cc(N2CCC(CN3CCN(CC(=O)N[C@H](C(=O)N4C[C@H](O)CC4C(=O)NCc4ccc(-c5scnc5C)cc4)C(C)(C)C)CC3)CC2)ccc1Nc1ncc(Cl)c(Nc2ccccc2N(C)S(C)(=O)=O)n1` (stereo in doubt) [Compound 27, (2R,4R)-1-((S)-2-(2-(4-((1-(4-((5-chloro-4-((2-(N-methylmethylsulfonamido)phenyl)amino)pyrimidin-2-yl)amino)-3-methoxyphenyl)piperidin-4-yl)methyl)piperazin-1-yl)acetamido)-3,3-dimethylbutanoyl)-4-hydroxy-N-(4-(4-methylthiazol-5-yl)benzyl)pyrrolidin-2-carboxamide]: the “DTC (EGFR^del19+T790M+C797S) protein degradation” value (shortened to “DTC”) in the data set with EGFR^del19+T790M+C797S is reported as “++ (Protein degradation > 80%)”. The “LTC (EGFR^L858R+T790M+C797S) protein degradation” value (“LTC” for short) at EGFR^L858R+T790M+C797S is recorded as “++ (Protein degradation > 80%)”. In addition, in data set [1], the half-life (usually how long it takes for the measured level to halve) was 8.89 h and the AUC(0-t) was 68 ng·h/mL.
For `COc1cc(N2CCN(CC3CCN(CC(=O)N[C@H](C(=O)N4C[C@H](O)CC4C(=O)NCc4ccc(-c5scnc5C)cc4)C(C)(C)C)CC3)CC2)ccc1Nc1ncc(Cl)c(Nc2ccccc2N(C)S(C)(=O)=O)n1` (stereo in doubt) [Compound 28, (2R,4R)-1-((S)-2-(2-(4-((4-(4-((5-chloro-4-((2-(N-methylmethylsulfonamido)phenyl)amino)pyrimidin-2-yl)amino)-3-methoxyphenyl)piperazin-1-yl)methyl)piperidin-1-yl)acetamido)-3,3-dimethylbutanoyl)-4-hydroxy-N-(4-(4-methylthiazol-5-yl)benzyl)pyrrolidin-2-carboxamide], the “DTC” value with EGFR^del19+T790M+C797S is reported as “++ (Protein degradation > 80%)”. In addition, the “LTC” value on EGFR^L858R+T790M+C797S is “++ (Protein degradation > 80%)”. Also, in data set [1], the half-life is 6.23 h and the AUC(0-t) came out at 1170 ng·h/mL.
Turning to `COc1cc(N2CCC(N3CCN(CC(=O)N[C@H](C(=O)N4C[C@H](O)C[C@@H]4C(=O)NCc4ccc(-c5scnc5C)cc4)C(C)(C)C)CC3)CC2)ccc1Nc1ncc(Cl)c(Nc2ccccc2N(C)S(C)(=O)=O)n1` [Compound 11, (2R,4R)-1-((S)-2-(2-(4-(1-(4-((5-chloro-4-((2-(N-methylmethylsulfonamido)phenyl)amino)pyrimidin-2-yl)amino)-3-methoxyphenyl)piperidin-4-yl)piperazin-1-yl)acetamido)-3,3-dimethylbutanoyl)-4-hydroxy-N-(4-(4-methylthiazol-5-yl)benzyl)pyrrolidin-2-carboxamide], the “DTC” value in the data set on EGFR^del19+T790M+C797S is reported as “++ (Protein degradation > 80%)”. In addition, the “LTC” value on EGFR^L858R+T790M+C797S is reported as “++ (Protein degradation > 80%)”. In data set [1], the half-life was 6.54 h and the AUC(0-t) is 553 ng·h/mL.
For the molecule `COc1cc(N2CCC(N3CCN(CCC(=O)N[C@H](C(=O)N4C[C@H](O)C[C@@H]4C(=O)NCc4ccc(-c5scnc5C)cc4)C(C)(C)C)CC3)CC2)ccc1Nc1ncc(Cl)c(Nc2ccccc2N(C)S(C)(=O)=O)n1` [Compound 20, (2R,4R)-1-((S)-2-(3-(4-(1-(4-((5-chloro-4-((2-(N-methylmethylsulfonamido)phenyl)amino)pyrimidin-2-yl)amino)-3-methoxyphenyl)piperidin-4-yl)piperazin-1-yl)propanamido)-3,3-dimethylbutanoyl)-4-hydroxy-N-(4-(4-methylthiazol-5-yl)benzyl)pyrrolidin-2-carboxamide], the “DTC” value with EGFR^del19+T790M+C797S is “++ (Protein degradation > 80%)”. In addition, the “LTC” value on EGFR^L858R+T790M+C797S was “++ (Protein degradation > 80%)”. Also, in data set [1], the half-life was 8.99 h and the AUC(0-t) stood at 42 ng·h/mL.
With `COc1cc(N2CCC(N3CCN(CC(=O)Nc4cccc5c4CN(C4CCC(=O)NC4=O)C5=O)CC3)CC2)ccc1Nc1ncc(Cl)c(Nc2ccccc2N(C)S(C)(=O)=O)n1` (stereo not shown) [Compound 22, 2-(4-(1-(4-((5-chloro-4-((2-(N-methylmethylsulfonamido)phenyl)amino)pyrimidin-2-yl)amino)-3-methoxyphenyl)piperidin-4-yl)piperazin-1-yl)-N-(2-(2,6-dioxopiperidin-3-yl)-1-oxoisoindolin-4-yl)acetamide], in the data set on EGFR^del19+T790M+C797S, the “DTC” value was “++ (Protein degradation > 80%)”. Moreover, the “LTC” value on EGFR^L858R+T790M+C797S is “++ (Protein degradation > 80%)”. In data set [1], the half-life was 12.4 h and the AUC(0-t) worked out at 47 ng·h/mL.
As for `COc1cc(N2CCC(CN3CCN(CC(=O)Nc4cccc5c4CN(C4CCC(=O)NC4=O)C5=O)CC3)CC2)ccc1Nc1ncc(Cl)c(Nc2ccccc2N(C)S(C)(=O)=O)n1` (stereo not shown) [Compound 24, 2-(4-((1-(4-((5-chloro-4-((2-(N-methylmethylsulfonamido)phenyl)amino)pyrimidin-2-yl)amino)-3-methoxyphenyl)piperidin-4-yl)methyl)piperazin-1-yl)-N-(2-(2,6-dioxopiperidin-3-yl)-1-oxoisoindolin-4-yl)acetamide], the “DTC” value in the data set with EGFR^del19+T790M+C797S is “++ (Protein degradation > 80%)”. Moreover, the “LTC” value at EGFR^L858R+T790M+C797S was “++ (Protein degradation > 80%)”. In data set [1], the half-life is 12.4 h and the AUC(0-t) is 17 ng·h/mL.
Regarding `COc1cc(N2CCN(CC3CCN(C(=O)CNc4ccc5c(c4)C(=O)N(C4CCC(=O)NC4=O)C5=O)CC3)CC2)ccc1Nc1ncc(Cl)c(Nc2ccccc2N(C)S(C)(=O)=O)n1` (stereo not shown) [Compound 66, N-(2-((5-chloro-2-((4-(4-((1-((2-(2,6-dioxopiperidin-3-yl)-1,3-dioxoisoindolin-5-yl)glycyl)piperidin-4-yl)methyl)piperazin-1-yl)-2-methoxyphenyl)amino)pyrimidin-4-yl)amino)phenyl)-N-methylmethanesulfonamide], in the data set on EGFR^del19+T790M+C797S, the “DTC” value was “++ (Protein degradation > 80%)”. Besides, at EGFR^L858R+T790M+C797S, the “LTC” value is “++ (Protein degradation > 80%)”.
`COc1cc(N2CCC(CN3CCN(c4ccc5c(c4)C(=O)N(C4CCC(=O)NC4=O)C5=O)CC3)CC2)ccc1Nc1ncc(Cl)c(Nc2ccccc2N(C)S(C)(=O)=O)n1` (stereo not shown) [Compound 67, N-(2-((5-chloro-2-((4-(4-((4-(2-(2,6-dioxopiperidin-3-yl)-1,3-dioxoisoindolin-5-yl)piperazin-1-yl)methyl)piperidin-1-yl)-2-methoxyphenyl)amino)pyrimidin-4-yl)amino)phenyl)-N-methylmethanesulfonamide]: the “DTC” value in the data set on EGFR^del19+T790M+C797S is “− (Protein degradation < 20%)”. Further, the “LTC” value on EGFR^L858R+T790M+C797S was “++ (Protein degradation > 80%)”.
The matching figures for `COc1cc(N2CCN(CC3CCN(c4ccc5c(c4)C(=O)N(C4CCC(=O)NC4=O)C5=O)CC3)CC2)ccc1Nc1ncc(Cl)c(Nc2ccccc2N(C)S(C)(=O)=O)n1` (stereo not shown) [Compound 68]: “+ (Protein degradation 20~80%)” and “++ (Protein degradation > 80%)”.
`COc1cc(N2CCC(N3CCN(CC#Cc4ccc5c(c4)C(=O)N(C4CCC(=O)NC4=O)C5=O)CC3)CC2)ccc1Nc1ncc(Cl)c(Nc2ccccc2N(C)S(C)(=O)=O)n1` (stereo not shown) [Compound 72, N-(2-((5-chloro-2-((4-(4-(4-(3-(2-(2,6-dioxopiperidin-3-yl)-1,3-dioxoisoindolin-5-yl)prop-2-yn-1-yl)piperazin-1-yl)piperidin-1-yl)-2-methoxyphenyl)amino)pyrimidin-4-yl)amino)phenyl)-N-methylmethanesulfonamide]: the “DTC” value with EGFR^del19+T790M+C797S is “− (Protein degradation < 20%)”. In addition, the “LTC” value on EGFR^L858R+T790M+C797S is recorded as “− (Protein degradation < 20%)”.
Regarding `COc1cc(N2CCN(CC#Cc3ccc4c(c3)C(=O)N(C3CCC(=O)NC3=O)C4=O)CC2)ccc1Nc1ncc(Cl)c(Nc2ccccc2N(C)S(C)(=O)=O)n1` (stereo not shown) [Compound 73, N-(2-((5-chloro-2-((4-(4-(3-(2-(2,6-dioxopiperidin-3-yl)-1,3-dioxoisoindolin-5-yl)prop-2-yn-1-yl)piperazin-1-yl)-2-methoxyphenyl)amino)pyrimidin-4-yl)amino)phenyl)-N-methylmethanesulfonamide], in the data set on EGFR^del19+T790M+C797S, the “DTC” value was “− (Protein degradation < 20%)”. Further, on EGFR^L858R+T790M+C797S, the “LTC” value was “− (Protein degradation < 20%)”.
